Results on 22 compounds are retold here after ChEMBL document CHEMBL5385849, “Discovery of 1-hydroxy-2-methylquinolin-4(1H)-one derivatives as new cytochrome bd oxidase inhibitors for tuberculosis therapy” (Eur J Med Chem, 2023).

Structures are written as SMILES. Values after ≈ are worked out from the molar mass of the structure shown. Active and inactive are the calls of the source. The calls are words filed in the database; no cut-off is given here. Some results are limits rather than exact numbers.

In experiment [1] the test system is Mycolicibacterium smegmatis. In words: Antimycobacterial activity against wild type Mycobacterium smegmatis MC2155 assessed as reduction in bacterial growth incubated for 24 hrs by resazurin dye based analysis. The experiment is classed as functional.
In experiment [2] the test system is Mycolicibacterium smegmatis. The experiment in a line: Antimycobacterial activity against Mycobacterium smegmatis harboring deltaqcrCAB mutant assessed as reduction in bacterial growth incubated for 24 hrs by resazurin dye based analysis. The experiment is classed as functional. Background: Alamar Blue is a resazurin reagent that responds to reducing activity.

Experiment [3] has as its system Mycolicibacterium smegmatis. The experiment in a line: Inhibition of C-terminal his-tagged wild type Mycobacterium smegmatis MC2155 cytochrome bd oxidase assessed as reduction in oxygen consumption at 25 uM measured upto 4 days by Methylene blue dye based assay. To be noted: time <= 4.0 day.
Experiment [4] can be described thus: Binding affinity to C-terminal his-tagged Mycobacterium tuberculosis Cytochrome bd oxidase assessed as dissociation constant incubated for 5 to 10 mins by MST assay.
Experiment [5] concerns Mycolicibacterium smegmatis. The experiment in a line: Antimycobacterial activity against Mycobacterium smegmatis harboring deltaqcrCAB mutant assessed as reduction in bacterial growth incubated for 2 days by resazurin dye based analysis. To be noted: 48 h, time 2 day. The format is functional.
The test system of experiment [6] is Mycolicibacterium smegmatis. In words: Inhibition of C-terminal his-tagged Mycobacterium smegmatis harboring […] mutant inverted-membrane vesicle cytochrome bd oxidase assessed as reduction in oxygen consumption rate at 10 uM measured upto 4 days by Methylene blue dye based assay. To be noted: time <= 4.0 day. The experiment is classed as cell membranes.

Experiment [7] relates to Mycolicibacterium smegmatis. The experiment in a line: Inhibition of C-terminal his-tagged wild type Mycobacterium smegmatis inverted-membrane vesicle cytochrome bd oxidase assessed as reduction in oxygen consumption rate at 10 uM measured upto 4 days by Methylene blue dye based assay. The experiment is classed as cell membranes. To be noted: time <= 4.0 day.
The test system of experiment [8] is Mycolicibacterium smegmatis. The experiment in a line: Inhibition of C-terminal his-tagged wild type Mycobacterium smegmatis MC2155 cytochrome bd oxidase assessed as reduction in oxygen consumption at 25 uM measured upto 4 days in presence of 6-chloro-2-ethyl-N-(4-(4-(4-(trifluoromethoxy)phenyl)piperidin-1-yl)benzyl)imidazo[1,2-a]pyridine-3-carboxamide by Methylene blue dye based assay. The settings on record: time <= 4.0 day.

In experiment [9] the test system is Mycolicibacterium smegmatis. The experiment in a line: Inhibition of C-terminal his-tagged Mycobacterium smegmatis harboring deltaqcrCAB mutant inverted-membrane vesicle cytochrome bd oxidase assessed as reduction in oxygen consumption rate at 10 uM measured upto 4 days by Methylene blue dye based assay. The format is cell membranes. To be noted: time <= 4.0 day.

For experiment [10], the system named is Mycolicibacterium smegmatis. The experiment in a line: Inhibition of C-terminal his-tagged wild type Mycobacterium smegmatis MC2155 cytochrome bd oxidase assessed as reduction in oxygen consumption at 5 uM measured upto 4 days by Methylene blue dye based assay. To be noted: time <= 4.0 day.
In experiment [11] the test system is Mycolicibacterium smegmatis. The experiment in a line: Inhibition of C-terminal his-tagged wild type Mycobacterium smegmatis MC2155 cytochrome bd oxidase assessed as reduction in oxygen consumption at 5 uM measured upto 4 days in presence of Aurachin D by Methylene blue dye based assay. To be noted: time <= 4.0 day.

For `Cc1[nH]c2ccccc2c(=O)c1Cc1ccc(OC(F)(F)F)cc1`, the figures for the MIC in experiment [1] and in experiment [2] were greater than 400 µM and 50 µM (≈ 16.7 µg/mL), respectively.
For `Cc1c(Cc2ccccc2C(F)(F)F)c(=O)c2ccccc2n1O`, the MIC – broadly, the lowest concentration that inhibits growth of the organism – in [1] is greater than 400 µM; in experiment [2], 50 µM (≈ 16.7 µg/mL).
On the same counts, the results for `Cc1c(Cc2ccc(Br)cc2)c(=O)c2ccccc2n1O` are greater than 400 µM and 6.25 µM (≈ 2.15 µg/mL).
As for `CC(C)=CCC/C(C)=C/CC/C(C)=C/Cc1c(C)[nH]c2ccccc2c1=O` [AURACHIN D], the inhibition – broadly, the relative decrease from the control value, in per cent – in [3] was “inactive”. Further, the MIC in experiment [2] was determined as 6.25 µM (≈ 2.27 µg/mL).
As to `CC(C)(C)c1cc(C(C)(C)C)c(NC(=O)c2c[nH]c3ccccc3c2=O)cc1O` [IVACAFTOR], the Kd (in general, the concentration at which binding is half-saturated) in experiment [4] worked out at 40 µM. The MIC in experiment [2] turned out to be 51 µM (≈ 20 µg/mL).
For the compound `Cc1ccccc1Cc1c(C)n(O)c2ccccc2c1=O`, the results for the MIC in experiment [1] and in experiment [2] were greater than 400 µM and 25 µM (≈ 6.98 µg/mL), respectively.
On the same counts, the results for `Cc1c(Cc2ccc(N3CCN(C)CC3)cc2)c(=O)c2ccccc2n1O` are greater than 400 µM and greater than 400 µM.
For `CCc1ccccc1Cc1c(C)n(O)c2ccccc2c1=O`, the MIC in [1] is greater than 400 µM; in [2], 50 µM (≈ 14.7 µg/mL).
Turning to `Cc1c(Cc2ccc(N3CCN(c4ccc(OC(F)(F)F)cc4)CC3)cc2)c(=O)c2ccccc2n1O`, the MIC in experiment [1] is greater than 400 µM; in experiment [2], 100 µM (≈ 51 µg/mL).
Turning to `Cc1c(Cc2ccccc2Br)c(=O)c2ccccc2n1O`, the figures for the MIC in [1] and in [2] were greater than 400 µM and 50 µM (≈ 17.2 µg/mL), respectively.
As for `Cc1c(Cc2ccccc2F)c(=O)c2ccccc2n1O`, the MIC in experiment [1] is greater than 400 µM; in experiment [2] it was 50 µM (≈ 14.2 µg/mL).
Regarding `Cc1c(Cc2ccc(OC(F)(F)F)cc2)c(=O)c2ccccc2n1O`, the MIC in experiment [5] is 6.25 µM (≈ 2.18 µg/mL); in experiment [1], greater than 400 µM; in experiment [2] it was 6.25 µM (≈ 2.18 µg/mL). For the same compound, the inhibition result in [3] and in experiment [6] was “inactive” in each case. For the same compound, the Kd in experiment [4] came out at 4.17 µM. Moreover, the inhibition was found to be 74% in experiment [7] and 86% in experiment [9]. Also, in experiment [8], the inhibition entry is “Active”.
Regarding `COc1ccccc1Cc1c(C)n(O)c2ccccc2c1=O`, the MIC is greater than 400 µM in experiment [1] and 25 µM (≈ 7.38 µg/mL) in [2].
With `CN(C(=O)c1c(O)c2ccccc2n(C)c1=O)c1ccccc1` [ROQUINIMEX], the Kd in experiment [4] amounted to 13 µM. Further, in [2], the MIC is 260 µM (≈ 80.2 µg/mL).
As to `Cc1c(Cc2ccccc2OC(F)(F)F)c(=O)c2ccccc2n1O`, the MIC in [5] was 6.25 µM (≈ 2.18 µg/mL); in experiment [1], greater than 400 µM; in experiment [2] it was 3.1 µM (≈ 1.08 µg/mL). Moreover, in [4], the Kd was found to be 165 µM.
`CCc1nc2ccc(Cl)cn2c1C(=O)NCc1ccc(N2CCC(c3ccc(OC(F)(F)F)cc3)CC2)cc1`: the inhibition result in [10] was “inactive”. Further, the inhibition entry in [11] was “Active”.
With `Cc1c(Cc2ccccc2)c(=O)c2ccccc2n1O`, the minimal inhibitory concentration (MIC) in experiment [1] was greater than 400 µM; in experiment [2], 50 µM (≈ 13.3 µg/mL).
For `Cc1c(-c2cnn(Cc3ccc(OC(F)(F)F)cc3)c2)c(=O)c2ccccc2n1O`, the MIC in [1] and in experiment [2] was greater than 400 µM in each case.
In the case of `Cc1c(Cc2ccc(Cl)cc2)c(=O)c2ccccc2n1O`, the MIC in [1] was greater than 400 µM; in experiment [2], 6.25 µM (≈ 1.87 µg/mL).
Regarding `Cc1c(Cc2ccc(I)cc2)c(=O)c2ccccc2n1O`, the results for the MIC in experiment [1] and in [2] were greater than 400 µM and 12.5 µM (≈ 4.89 µg/mL), respectively.
Regarding `Cc1[nH]c2ccccc2c(=O)c1-c1cnn(Cc2ccc(OC(F)(F)F)cc2)c1`, the MIC in experiment [1] and in experiment [2] was greater than 400 µM in each case.
In the case of `Cc1c(Cc2ccccc2Cl)c(=O)c2ccccc2n1O`, the MIC is greater than 400 µM in [1] and 50 µM (≈ 15 µg/mL) in experiment [2].
